Values joined by “and” are separate entries in the source; they are usually repeats but may differ in a detail not shown here. Identical values can stand only once. “Also recorded” adds a separate entry of the source.
Columns and labels:
SJL mice = test: PLP139-151-induced R-EAE model, clinical score and relapse; assay type: in vivo, mouse
Description: For PLP139-151-induced R-EAE, 6- to 7-wk-old female SJL mice were immunized s.c. with 100 μL of an emulsion containing 200 μg of M. tuberculosis H37Ra and 50 μg of […] (HSLGKWLGHPDKF) (SEQ ID NO:139) distributed over three spots on the flank. Individual animals were observed daily and clinical scores assessed in a blinded fashion on a 0-5 scale as shown in Table 11 (Miller, et al., Curr. Protocols Immulo., Chapter 12, Unit 15.1). Unless otherwise mentioned, all mice were age and sex-matched for all experiments.
Mice were randomly divided into four groups. For the disease prevention model, B7-H4-Ig or control IgG at 3 mg/kg was injected intraperitoneally (i.p.) on the same day as PLP130-151 priming. For the therapeutic model, B7-H4-Ig or control IgG at 3 mg/kg was given i.p. beginning on approximately Day 21 post PLP130-151 priming. In both cases, B7-H4-Ig was administrated, 3 times a week, for 2-4 weeks.
To determine the therapeutic benefit of B7-H4-Ig, murine B7-H4-Ig was tested in the PLP139-151-induced R-EAE mouse model both for prevention of disease (treatment begun on the same day of disease induction) and therapeutic intervention (treatment begun during the disease remission) settings (FIG. 33). In both cases the disease course was followed for about 2 months to assess clinical disease following the grading system shown in […].
Female SJL mice were first immunized with PLP139-151 peptide emulsified in CFA and then randomized into 2 groups for either prevention or therapeutic treatment. For each treatment regimen there were 2 subgroups, with one subgroup receiving Control IgG and the other subgroup receiving murine B7-H4-Ig. Both Control IgG and murine B7-H4-Ig were given at 3 mg/kg, 3 times a week for 4 weeks. Prevention treatment (FIG. 34) means that murine B7-H4-Ig or Control IgG was administered starting on the day at PLP immunization (t=0). Therapeutic treatment (FIG. 35) means that murine B7-H4-Ig or Control IgG was administered beginning on Day 21 (t=21). The data is presented as the mean clinical score over the 55 day time course with 5 mice per group, and the clinical scores and injection were conducted double blinded.
The effect of B7-H4-Ig treatment on the number of Treg cells in vivo was analyzed in this study. The effect of B7-H4-Ig on the number and phenotype of CD4^+ T cells infiltrating into the CNS following B7-H4-Ig treatment, the relevant site for activity in vivo, was determined. […] SJL mice were first immunized with PLP139-151 peptide. B7-H4-Ig treatment started during remission (Day 23). Mice received mouse Control IgG, 100 μg, or B7-H4-Ig at either 60 or 300 μg, 3 times per week for 2 weeks or 4 weeks. Half of the animals (5 mice from each group) were euthanized on Day 35, after 6 doses of B7-H4-Ig. The rest of the animals (5 mice from each group) were euthanized on Day 50, after 12 doses of B7-H4-Ig. Mouse spleens, draining lymph nodes, spinal cords and brains were collected, tissues were made into a single cell suspension and counted via the use of a hemocytometer, and analyzed for the presence of effector/memory CD4^+ T cells (CD4^+CD44^+) and Treg cells (CD4^+CD25^+FoxP3^+). Whole cerebellar and lumbar spinal cord tissue samples were snap frozen and processed as described above to analyze the number of CD4^+ and FoxP3^+ cells present within the CNS by histology.
Human B7-H4-Ig was also tested for its therapeutic efficacy in the PLP139-151-induced R-EAE mouse model. […]

DBA/1 mice = test: Therapeutic CIA study AA#80 (male mice), disease score; assay type: in vivo, mouse; conditions: for clinical score: individual mice sampled for serum analysis; for AA#80 CIA disease scores: individual mice (Tag #)
Description: DBA/1 mice (10 per group) aged 7-9 weeks were used for the CIA model. Mice from several vendors (Jackson Laboratories, Harlan Laboratories, and Taconic Farms) were tested and it was determined that Taconic mice are most appropriate for the CIA studies. Taconic mice develop more consistent and severe disease symptoms and show continued disease progression, while mice from the other vendors often show stable, less severe disease, even in the absence of treatment. female (F) mice in AA#79 and male (M) mice in AA#80, were tested to determine which gender to use in future experiments.
On the day before the study is initiated, the hair on the right flank of each mouse was removed using an electric clipper. A metal identification tag was placed on the right ear of each mouse. On Day 0, mice were immunized with 100 μL of chicken collagen type II/Complete Freund's Adjuvant (CII/CFA) emulsion in the right flank. On Day 20, the hair on the left flank of each mouse was removed using an electric clipper, and on Day 21, mice were immunized with 100 μL of chicken collagen type II/Incomplete Freund's Adjuvant (CII/IFA) emulsion in the left flank. Pre-filled syringes of CII/CFA and CII/IFA emulsion purchased from Hooke Laboratories were used to ensure consistent dosing with and potency of the immunogen.
Early arthritis symptoms, such as erythema and mild swelling, usually appear on Day 21, and on Day 28, more severe symptoms such as swelling in many digits and inflammation extending to the tarsal joint are typically present. Each limb is evaluated for severity of arthritis symptoms three times a week using a widely accepted arthritis severity score system, shown in Table 2. The scores from each of the 4 limbs are summed to yield the disease score of each mouse. […]
Treatment was initiated when the average disease score for the study animals was greater than four. This corresponded to Day 29 in AA#79 and Day 24 in […]. By waiting until animals are symptomatic, it was ensured that the model is performed in a therapeutic rather than prophylactic mode.
B7-H4-Ig, RPA110010, and murine B7-H4-Ig proteins were administered by intraperitoneal (IP) injection 3 times a week for a total of 8 doses. RPA110010 is an extracellular domain variant of B7-H4-Ig, SEQ ID NO:126. Control murine and human IgG proteins were given once a week for a total of 3 doses. […] All proteins were diluted to the desired concentration (500 μg in 500 μL, or 1 mg/mL) with sterile PBS immediately before injection. Vehicle control mice receive Amplimmune formulation buffer diluted 1:10 in PBS, with an injection volume of 500 μL.

Substance	mean clinical score, primary disease relapse (SJL mice; 5 or 25 mg/kg 3 times a week for 4 weeks from Day 23, vs Synagis (FIG. 48A))	long-term relapse rate (SJL mice; 5 or 25 mg/kg 3 times a week for 4 weeks from Day 23, vs Synagis (FIG. 48B))	clinical score (DBA/1 mice; Day 27)	clinical score (DBA/1 mice; Day 34)	clinical score (DBA/1 mice; Day 41)	AA#80 CIA disease scores (DBA/1 mice; Study Day 20)	AA#80 CIA disease scores (DBA/1 mice; Study Day 22)	AA#80 CIA disease scores (DBA/1 mice; Study Day 24)	AA#80 CIA disease scores (DBA/1 mice; Study Day 27)	AA#80 CIA disease scores (DBA/1 mice; Study Day 29)	AA#80 CIA disease scores (DBA/1 mice; Study Day 31)	AA#80 CIA disease scores (DBA/1 mice; Study Day 34)	AA#80 CIA disease scores (DBA/1 mice; Study Day 36)	AA#80 CIA disease scores (DBA/1 mice; Study Day 38)	AA#80 CIA disease scores (DBA/1 mice; Study Day 41)	AA#80 CIA disease scores (DBA/1 mice; Study Day 44)	clinical scores (average), R-EAE (SJL mice; 3 mg/kg i.p. 3 times a week for 4 weeks, preventative (t=0) and therapeutic (t=21) regimens, 0-5 scale (FIGS. 34, 35))	disease symptoms during the acute phase of R-EAE (SJL mice; 1st in vivo study, treatment from the day of PLP139-151/CFA priming)	mean clinical score, primary relapse (SJL mice; both 3 mg/kg (60 μg/dose) and 15 mg/kg (300 μg/dose), three times a week from day 23 (FIG. 46))	disease scores, AA#80 (DBA/1 mice; male DBA/1 mice, 20 mg/kg IP 3× weekly, 8 doses from Day 24, vs control groups (FIG. 8), 20 mg/kg)
Human B7-H4-Ig: human B7-H4 extracellular domain fused to hinge, CH2 and CH3 regions of human immunoglobulin Cγ1 chain; representative SEQ ID NOs:114-137	reduction of mean clinical score	reduction in long-term relapse rate	2 (2×) and 3	5 and 4	9 (2×) and 6	4 (2×) and 2 (3×) and 3 (2×) and 5 (2×)	4 (4×) and 3 and 5 (4×)	4 (3×) and 5 (5×) and 2	3 (3×) and 2 (5×) and 4	2 (5×) and 3 and 1 and 5 (2×)	2 (4×) and 3 and 1 and 4 (2×) and 5	2 (2×) and 5 (3×) and 1 and 4 (2×) and 6	3 and 7 (3×) and 4 (3×) and 5 and 6	3 (4×) and 7 and 9 and 5 and 6 and 10 and 12	4 and 9 (5×) and 6 and 10 and 13	3 and 11 (3×) and 8 and 9 and 12 and 14 and 4	–	–	–	–
B7-H4-Ig: B7-H4 extracellular domain fused to Ig Fc; bare label is the human protein in Example 3, murine protein in Examples 1, 2, 5, 7-11	–	–	–	–	–	–	–	–	–	–	–	–	–	–	–	–	0-0.5	did not affect disease symptoms during the acute phase of R-EAE	significantly prevented the primary relapsing	lower disease scores than mice in the control groups; also recorded: prolonged period of stable disease scores
